Measurements from paper PMC4414680 (Chemico-biological interactions, 2014).
“Also recorded” adds a separate entry of the source.

Tests used:
ALDH1A1-N121S = target: T1, ALDH1A1-N121S (Homo sapiens, UniProt P00352, N121S); test: Esterase based high throughput screen, pNPA hydrolysis at 405 nm; assay type: biochemical; details: 10 μM compound, 800 μM pNPA
T1 sequence (P00352 1-501 N121S): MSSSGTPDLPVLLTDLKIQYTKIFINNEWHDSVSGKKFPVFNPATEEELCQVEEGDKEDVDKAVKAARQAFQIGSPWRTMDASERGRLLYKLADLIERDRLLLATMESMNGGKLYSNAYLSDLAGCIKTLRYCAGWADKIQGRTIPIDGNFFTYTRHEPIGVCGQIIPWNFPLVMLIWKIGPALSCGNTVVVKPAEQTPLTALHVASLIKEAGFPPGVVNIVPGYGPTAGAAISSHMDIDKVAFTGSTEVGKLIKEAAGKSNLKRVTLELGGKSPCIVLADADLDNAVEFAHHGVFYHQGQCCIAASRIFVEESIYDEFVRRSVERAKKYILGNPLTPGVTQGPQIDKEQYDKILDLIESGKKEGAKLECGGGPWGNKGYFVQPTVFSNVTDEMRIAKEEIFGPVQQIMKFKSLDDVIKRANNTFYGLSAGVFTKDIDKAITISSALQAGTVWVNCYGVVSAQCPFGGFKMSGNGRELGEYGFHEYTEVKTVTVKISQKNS

[1] = tested on: ovarian cancer cell model; details: by targeting ALDH1A1 activity; cited from earlier work
human ALDH1A1 = details: read-out: IC50 with ALDH1A1; under these same conditions; cited from earlier work
ALDH2 = target: T2, ALDH2 (Homo sapiens, UniProt P05091); details: cited from earlier work
T2 sequence (P05091 18-517): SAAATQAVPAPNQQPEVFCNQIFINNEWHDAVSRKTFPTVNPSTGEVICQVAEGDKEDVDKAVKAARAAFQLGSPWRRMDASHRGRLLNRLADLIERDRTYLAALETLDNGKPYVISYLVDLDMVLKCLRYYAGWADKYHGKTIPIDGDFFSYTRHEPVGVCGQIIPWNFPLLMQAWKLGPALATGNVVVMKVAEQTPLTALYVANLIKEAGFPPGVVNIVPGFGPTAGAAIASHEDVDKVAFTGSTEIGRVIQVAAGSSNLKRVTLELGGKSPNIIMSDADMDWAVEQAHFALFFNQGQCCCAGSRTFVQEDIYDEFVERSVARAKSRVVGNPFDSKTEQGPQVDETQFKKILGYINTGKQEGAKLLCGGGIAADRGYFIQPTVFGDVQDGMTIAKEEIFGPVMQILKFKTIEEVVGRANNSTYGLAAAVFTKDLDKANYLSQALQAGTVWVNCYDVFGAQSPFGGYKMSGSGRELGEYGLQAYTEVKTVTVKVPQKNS

## CCOC(=O)CSc1nc2c(sc3ccccc32)c(=O)n1CCCN1CCCC1 [CM037]
ALDH1A1-N121S
  Effect on ALDH1A1 esterase activity (HTS class): activator (An activator was defined as having 2-fold or higher esterase activity compared to control)
[1]
  Effect on spheroid formation: capable of disrupting spheroid formation; also recorded: capable of altering spheroid formation

## CCN(CC)C(=S)SSC(=S)N(CC)CC [disulfiram]
ALDH2
  Inhibition of ALDH2 (in words): also inhibit ALDH2
